According to paper PMC8267177, “Cyclic Peptoid-Peptide Hybrids as Versatile Molecular Transporters” (Frontiers in Chemistry, 2021):
Entries after “also recorded” stand apart in the source; their conditions may differ. Non-standard residues stand in square brackets, D forms with d. Residues, ends and D or L forms follow the SMILES beside them. *: point of attachment. RhodamineB = CCN(CC)c1ccc2c(-c3ccccc3C(=O)*)c3ccc(=[N+](CC)CC)cc-3oc2c1; Nphe = O=C(O)CNCc1ccccc1; Nlys = NCCCCNCC(=O)O

Tests used:
[1] = system: HeLa cells; experiment: Localization assay: cellular uptake and organellar localization by confocal microscopy; format: cell-based, human; conditions: 5 µM, 5 h, 37 °C
Description: As 15-Rhod to 24-Rhod were not toxic at 5 µM the following transport experiments were carried out using this concentration. To study their cellular uptake and organellar localization, HeLa cells were treated with 5 µM of the cyclic conjugates 15-Rhod to 24-Rhod for 5 h and eventually imaged using confocal microscopy (for experimental details, see supplemental Material).
FIGURE 4 Localization of the macrocyclic conjugates 15-Rhod to 24-Rhod in HeLa cells. After incubation with a 5.0 µM solution of the respective transporters for 5 h, the cellular uptake was monitored via fluorescent confocal microscopy (Rhodamine B labeled hybrids: λ Exc = 532 nm, λ Em = 570–620 nm; MitoTracker® Green: λ Exc = 488 nm, λ Em = 490–540 nm; Hoechst 33,342: λ Exc = 405 nm, λ Em = 430–490 nm). Counterstaining with MitoTracker® Green visualized mitochondria (green). Staining with 2 μg/ml Hoechst 33,342 indicated nuclei (blue). Scale bar: 10 µm.
In an 8-well chamber slide (µ-Slide 8-Well ibidiTreat, ibidi®), 1.0 × 10^4 HeLa cells per well were cultivated for 16 h. The cyclic hybrids were diluted with DMEM to yield a 5 µM concentration. The cells were treated with the hybrids for 5 h at 37 °C. To monitor the intracellular localization, the cells were counterstained with MitoTracker® (Invitrogen) and 2 µg/mL Hoechst 33342. After washing with DPBS (3 ×), the luminescence was monitored via life-cell imaging using a Leica TCS-SPE confocal microscope (DM2500 inverse microscope, 8 Bit resolution, 1024 × 1024 pixels), equipped with a 1 Airy pinhole aperture (111.5 µm), ACS APO 63.0x/1.30 OIL UV and 40x/1.14 OIL UV objectives and the images were processed by the Leica Application Suite (LAS-AF) Version 2.1.2 build 4530 software. Images were taken with a scanning frequency of 400 Hz. Background noise was averaged by an eight-fold repetition of the scan process. The cyclic hybrids were excited at 532 nm, MitoTracker® Green at 488 nm, and Hoechst 33342 at 405 nm. The exposure was set to minimize oversaturated pixels in the final images. Fluorescence emission was measured at 570–620 nm for the detection of rhodamine B labeled hybrids, at 490–540 nm for the detection of mitochondria, and 430–490 nm for the detection of nuclei.

[2] = in vitro; format: cell-based; conditions: human
Description: The cytotoxicity of the macrocyclic hybrids 15–24, as well as their conjugates 15-Rhod to 24-Rhod, was examined using a standard MTT assay in human epithelial cervix carcinoma (HeLa) cells. […] ([Mosmann, 1983]; [Tolosa et al., 2015]) After treatment of HeLa cells with different concentrations of the respective macrocycles 15–24 (0.50─50 µM) for 72 h, no significant cytotoxic effects were observed. […] As shown by many research groups that Rhodamine B by itself is not efficiently entering the cells showing therefore an LD50 > 50 μM, we assume that this the toxicity of the Rhodamine moiety might be higher when increasingly localizing in the mitochondria to a higher amount.
In a 96-well plate (Corning® Costar® 3596 96-Well Cell Culture Cluster), 1.0 × 10^4 HeLa-cells per well of a 96 well plate were cultivated for 16 h. Stock solutions of the single compounds in dimethylsulfoxide were diluted to 0.50 µm, 5.00 µm, and 50.0 µm with cell culture medium (DMEM + 10% FBS + 1% P/S) to ensure a final concentration of DMSO below 0.5%. 100 µL of the prepared DMEM diluted compounds were added to each well and the cells were incubated for 72 h. All experiments were performed in triplicates. Cells that were solely treated with the culture medium containing 0.5% of DMSO served as a negative control. After incubation, the positive control (cells in DMSO plus 0.5% DMSO) was treated with 1% Triton-X. To determine the viability of the cells 20 µL of a freshly prepared solution of 3-(4,5-dimethylthiazol-2-yl)-2,5-diphenyltetrazolium bromide (MTT, 2.73 mg/mL, Sigma-Aldrich®) in culture medium were added to each well and incubated at 37 °C for 4 h. The reaction was stopped using 100 µL of Solubilization Solution / Stop Mix (CellTiter 96® Non-Radioactive Cell Proliferation Assay, Promega). After 24 h, the absorption (A) of every well at 595 nm was monitored using a 96-well plate reader (Ultra Microplate Reader ELx808, Biotech Instruments Inc.).

[3] = system: HeLa cells; experiment: Cellular uptake at 4 °C and 37 °C (CLSM, Figure S1); format: cell-based, human; conditions: 5 µM, 2 h incubation at 4 °C and 37 °C
Text: The molecular transporters 15-Rhod, 20-Rhod and 22-Rhod are characterized by low cytotoxicity, efficient cellular uptake, and high specificity. Thus, they represent the most promising cyclic hybrids capable of the transport of different cargos into mitochondria. […] The capability of hydrophobic structures to function as molecular transporters is also known for so-called hydrophobic CPPs. However, only a few members of this substance class have been discovered yet. ([Xie et al., 2020]; [Desale et al., 2021]) It is assumed, that hydrophobic CPPs may penetrate cellular membranes in a direct, energy-independent manner dispensing with endocytosis. ([Gao et al., 2002]; [Gao et al., 2011]; [Nakayama et al., 2011]; [Guidotti et al., 2017]; [Tian et al., 2017]) The latter leads to a major challenge as molecular transporters might not escape the endosomes and get degraded instead of reaching their designated targets. […] The efficient internalization at a low temperature led us to the assumption that 22-Rhod might directly penetrate the cell membrane. However, the uptake mechanism of macrocyclic hybrids will be further examined.
Figure S1: Confocal Laser Scanning Microscopy (CLSM) images of HeLa cells after 2 h incubation with 5 µM peptoid 22-Rhod at 4 °C (top line, A) and 37 °C (bottom line, B). […]

[4] = system: cells; conditions: free dye, not efficiently entering the cells; ref many research groups (reference not given); cited from earlier work
Description: The cytotoxicity of the macrocyclic hybrids 15–24, as well as their conjugates 15-Rhod to 24-Rhod, was examined using a standard MTT assay in human epithelial cervix carcinoma (HeLa) cells. […] ([Mosmann, 1983]; [Tolosa et al., 2015]) After treatment of HeLa cells with different concentrations of the respective macrocycles 15–24 (0.50─50 µM) for 72 h, no significant cytotoxic effects were observed.

| Compound | Cellular uptake efficiency ([1]; confocal microscopy of Rhodamine B fluorescence (Exc 532 nm, Em 570–620 nm)) | Organellar localization (mitochondria) ([1]; counterstaining with MitoTracker Green, confocal microscopy) | IC50 at 72 h [2] [µM] | Mitochondrial uptake at 37 °C and at 4 °C [3] | LD50 of Rhodamine B by itself [4] [µM] |
| --- | --- | --- | --- | --- | --- |
| CCN(CC)c1ccc2c(-c3ccccc3C(=O)NCCCCN3CC(=O)N(Cc4ccccc4)CC(=O)N(Cc4ccccc4)CC(=O)N(Cc4ccccc4)CC(=O)N[C@@H](Cc4ccccc4)C(=O)N[C@@H](Cc4ccccc4)C3=O)c3ccc(=[N+](CC)CC)cc-3oc2c1 [22-Rhod, cyclo-(l-Phe-N1ph-N1ph-N1ph-N4am(Rhod)-l-Phe)] (cyclo(FF[Nlys](RhodamineB)[Nphe][Nphe][Nphe])) | efficiently taken up; also recorded: high cellular uptake efficiency | mitochondrial specificity | 44 | occurring at 37 °C as well as at 4 °C |  |
| CCN(CC)c1ccc2c(-c3ccccc3C(=O)O)c3ccc(=[N+](CC)CC)cc-3oc2c1 [Rhodamine B] |  |  |  |  | > 50 |
